49 compounds from patent US9221814B2, “Heterocyclic guanidine F1F0-atpase inhibitors and therapeutic uses thereof” (Lycera Corporation, priority 2012, dated 2015) can be followed below.

The subject of one assay is Ramos cells. In words: Cytotoxicity in Ramos cells. The assay is classed as cell-based. To be noted: detection limit EC50=16 μM, read-out: Ramos Cell EC50. The method, then: (§1) Exemplary compounds described in above Examples were tested for activity against F1F0-ATPase by measuring the ability of the compounds to inhibit ATP synthesis. In addition, the compounds were assessed for cytotoxicity in Ramos cells. Inhibition of F1F0-ATPase activity in synthesizing ATP and cytotoxicity in Ramos cells were measured according to the procedures described in K. M. Johnson et al. Chemistry & Biology 2005, 12, 485-496.

The target of another assay is T1, F1F0-ATPase (Bos taurus, UniProt P13621).
T1 construct: from tissue
In words: Inhibition of F1F0-ATPase activity in synthesizing ATP (ATP synthesis inhibition). It counts as biochemical. The following applies: detection limit IC50=16 μM, read-out: ATP Syn IC50. How it is done:
as §1

Each structure is given as a SMILES string. Like-named read-outs stand apart in the source and are kept apart here.

Broadly, the EC50 is the concentration needed to bring the measured effect to its halfway point. For orientation: IC50 means the concentration needed to halve the response being measured.

In the case of `Cn1cc(C(=O)/N=C(/Nc2cc(-c3ccc(O)cc3F)n[nH]2)Nc2ccccc2F)c(C(F)(F)F)n1` [Compound 1, N-(((3-(2-Fluoro-4-hydroxyphenyl)-1H-pyrazol-5-yl)amino)((2-fluorophenyl)amino)methylene)-1-methyl-3-(trifluoromethyl)-1H-pyrazole-4-carboxamide], in the assay with Ramos cells (Homo sapiens), the EC50 is less than 5 µM. In addition, on F1F0-ATPase, the IC50 was in the range of 5 to 16 µM.
Taken in the same sequence, the figures for `CCOC(=O)NC1CCCC(N/C(=N\C(=O)c2cc(C)oc2C(F)(F)F)Nc2cccc(F)c2)C1` (stereo not shown) [Compound 2, Ethyl (3-(3-(3-fluorophenyl)-2-(5-methyl-2-(trifluoromethyl)furan-3-carbonyl)guanidino)cyclohexyl)carbamate] were 5 to 16 µM and greater than 16 µM.
In the case of `CC(C)CN/C(=N/C(=O)c1cn(C)nc1C(F)(F)F)Nc1cc(-c2ccc(O)c(F)c2)n[nH]1` [Compound 3, N-(((3-(3-Fluoro-4-hydroxyphenyl)-1H-pyrazol-5-yl)amino)(isobutylamino)methylene)-1-methyl-3-(trifluoromethyl)-1H-pyrazole-4-carboxamide], the EC50 with Ramos cells (Homo sapiens) was greater than 16 µM. Besides, the IC50 on F1F0-ATPase was in the range of 5 to 16 µM.
For `CC(C)CN/C(=N/C(=O)c1cn(C)nc1C(F)(F)F)Nc1cc(-c2ccc(O)cc2F)n[nH]1` [Compound 4, N-(((3-(2-Fluoro-4-hydroxyphenyl)-1H-pyrazol-5-yl)amino)(isobutylamino)methylene)-1-methyl-3-(trifluoromethyl)-1H-pyrazole-4-carboxamide], in that order: greater than 16 µM and greater than 16 µM.
In the case of `Cn1cc(C(=O)/N=C(\Nc2cc(-c3ccc(O)c(F)c3)n[nH]2)Nc2ccc(F)c(O)c2F)c(C(F)(F)F)n1` [Compound 5, N-(((2,4-Difluoro-3-hydroxyphenyl)amino)((3-(3-fluoro-4-hydroxyphenyl)-1H-pyrazol-5-yl)amino)methylene)-1-methyl-3-(trifluoromethyl)-1H-pyrazole-4-carboxamide], the EC50 in the assay on Ramos cells (Homo sapiens) lay in the range of 5 to 16 µM. On F1F0-ATPase, the IC50 was in the range of 5 to 16 µM.
Consider `CCOCCCN/C(=N\C(=O)c1cnoc1C)Nc1cc(-c2cc(F)cc(F)c2)n[nH]1` [Compound A-1], for which the EC50 with Ramos cells is greater than 16 µM. On F1F0-ATPase, the IC50 is greater than 16 µM.
As for `Cc1nn(C)cc1C(=O)/N=C(\Nc1cc(F)cc(Cl)c1)Nc1cc(-c2ccc(O)cc2F)n[nH]1` [Compound A-2], the concentration for a half-maximal effect (EC50) with Ramos cells was greater than 16 µM. For the same compound, on F1F0-ATPase, the IC50 fell in the range of 5 to 16 µM.
For the compound `Cn1cc(C(=O)/N=C(/Nc2cc(-c3ccc(O)cc3F)n[nH]2)Nc2ccccc2Cl)c(C(F)(F)F)n1` [Compound A-3], the EC50 in the assay on Ramos cells was less than 5 µM. At F1F0-ATPase, the IC50 is 5 to 16 µM.
For `Cn1cc(C(=O)N=C(Nc2cc(-c3ccc(O)cc3F)n[nH]2)Nc2ccc(F)cc2F)c(C(F)(F)F)n1` [Compound A-4], in the assay on Ramos cells (Homo sapiens), the concentration giving a half-maximal response (EC50) was less than 5 µM. Moreover, the IC50 on F1F0-ATPase was in the range of 5 to 16 µM.
On to `Cn1cc(C(=O)/N=C(\Nc2cc(F)cc(Cl)c2)Nc2cc(-c3ccc(O)cc3F)n[nH]2)c(C(F)(F)F)n1` [Compound A-5], for which the EC50 with Ramos cells was less than 5 µM. Besides, the IC50 at F1F0-ATPase is less than 5 µM.
As to `CSc1ccccc1N/C(=N\C(=O)c1cn(C)nc1C(F)(F)F)Nc1cc(-c2ccc(O)cc2F)n[nH]1` [Compound A-6], the EC50 in the assay on Ramos cells was less than 5 µM. Besides, the half-inhibitory concentration (IC50) at F1F0-ATPase lay within 5 to 16 µM.
For `CSc1cccc(N/C(=N\C(=O)c2cn(C)nc2C(F)(F)F)Nc2cc(-c3ccc(O)cc3F)n[nH]2)c1` [Compound A-7], in that order: less than 5 µM and 5 to 16 µM.
For `CSc1ccc(N/C(=N\C(=O)c2cn(C)nc2C(F)(F)F)Nc2cc(-c3ccc(O)cc3F)n[nH]2)cc1` [Compound A-8], in that order: less than 5 µM and 5 to 16 µM.
With `Cc1nc(C(=O)/N=C(/Nc2ccc(F)cc2)Nc2cccc(C(F)(F)F)c2)cs1` [Compound A-10], the EC50 with Ramos cells (Homo sapiens) was greater than 16 µM.
For the compound `Cc1nc(C(=O)/N=C(\Nc2cccc(C(F)(F)F)c2)Nc2ccc3[nH]ncc3c2)cs1` [Compound A-11], in the assay with Ramos cells (Homo sapiens), the EC50 is greater than 16 µM.
Same read-out and setting: to `Cc1nc(C(=O)/N=C(\Nc2cccc(C(F)(F)F)c2)Nc2ccc3[nH]c(=O)oc3c2)cs1` [Compound A-12] belongs greater than 16 µM; to `Cc1nc(C(=O)/N=C(/Nc2ccc(N3CCC(O)CC3)cc2)Nc2cccc(C(F)(F)F)c2)cs1` [Compound A-13], greater than 16 µM.
On the same count and under the same terms, to `Cc1nc(C(=O)/N=C(/Nc2ccc(F)cc2)Nc2ccccc2C(C)(C)C)cs1` [Compound A-14] belongs greater than 16 µM.
For `Cc1nc(C(=O)/N=C(/Nc2ccc3[nH]ncc3c2)Nc2ccccc2C(C)(C)C)cs1` [Compound A-15], in the assay on Ramos cells (Homo sapiens), the EC50 was 5 to 16 µM.
In the case of `Cc1nc(C(=O)/N=C(/Nc2ccc3[nH]c(=O)oc3c2)Nc2ccccc2C(C)(C)C)cs1` [Compound A-16], in the assay with Ramos cells (Homo sapiens), the EC50 is greater than 16 µM.
For the compound `Cc1nc(C(=O)/N=C(/Nc2ccc(N3CCC(O)CC3)cc2)Nc2ccccc2C(C)(C)C)cs1` [Compound A-17], the EC50 in the assay on Ramos cells (Homo sapiens) is greater than 16 µM.
The same measure, in the same setting: to `Cc1nc(C(=O)/N=C(/Nc2ccc(F)cc2)Nc2ccc(Cl)cc2)cs1` [Compound A-18] belongs greater than 16 µM; to `Cc1nc(C(=O)/N=C(\Nc2ccc(Cl)cc2)Nc2ccc3[nH]ncc3c2)cs1` [Compound A-19], greater than 16 µM.
`Cc1nc(C(=O)/N=C(\Nc2ccc(Cl)cc2)Nc2ccc3[nH]c(=O)oc3c2)cs1` [Compound A-20]: the EC50 with Ramos cells (Homo sapiens) was greater than 16 µM.
`Cc1nc(C(=O)/N=C(\Nc2ccc(Cl)cc2)Nc2ccc(N3CCC(O)CC3)cc2)cs1` [Compound A-21]: in the assay on Ramos cells (Homo sapiens), the EC50 is greater than 16 µM.
Consider `Cc1nc(C(=O)/N=C(/Nc2ccc(F)cc2)Nc2cccc(Cl)c2)cs1` [Compound A-22], for which the EC50 in the assay on Ramos cells (Homo sapiens) was greater than 16 µM.
Same read-out and setting: then `Cc1nc(C(=O)/N=C(\Nc2cccc(Cl)c2)Nc2ccc3[nH]ncc3c2)cs1` [Compound A-23], with greater than 16 µM.
With `Cc1nc(C(=O)/N=C(\Nc2cccc(Cl)c2)Nc2ccc3[nH]c(=O)oc3c2)cs1` [Compound A-24], the concentration for a half-maximal effect (EC50) in the assay with Ramos cells (Homo sapiens) was greater than 16 µM.
`Cn1cc(C(=O)/N=C(/Nc2cc(-c3cc(F)cc(F)c3)n[nH]2)NC(C)(C)C)c(C(F)(F)F)n1` [Compound A-25]: in the assay with Ramos cells, the EC50 was less than 5 µM. The IC50 on F1F0-ATPase was less than 5 µM.
`CC(C)CN/C(=N\C(=O)c1cn(C)nc1C(F)(F)F)Nc1cc(-c2cc(F)cc(F)c2)n[nH]1` [Compound A-26]: the EC50 with Ramos cells is less than 5 µM. Besides, at F1F0-ATPase, the IC50 is less than 5 µM.
In the case of `Cn1cc(C(=O)/N=C(/Nc2cc(-c3cc(F)cc(F)c3)n[nH]2)NC2CCCC2)c(C(F)(F)F)n1` [Compound A-27], the EC50 with Ramos cells is less than 5 µM. Further, the IC50 at F1F0-ATPase was less than 5 µM.
`Cn1cc(C(=O)/N=C(/Nc2cc(-c3cc(F)cc(F)c3)n[nH]2)NC2CCC2)c(C(F)(F)F)n1` [Compound A-28]: in the assay on Ramos cells, the EC50 was less than 5 µM. Moreover, at F1F0-ATPase, the IC50 is less than 5 µM.
For the compound `CCOCCCN/C(=N\C(=O)c1cn(C)nc1C(F)(F)F)Nc1cc(-c2cc(F)cc(F)c2)n[nH]1` [Compound A-29], the EC50 in the assay on Ramos cells was less than 5 µM. For the same compound, the IC50 on F1F0-ATPase is less than 5 µM.
Regarding `CCOCCN/C(=N\C(=O)c1cn(C)nc1C(F)(F)F)Nc1cc(-c2cc(F)cc(F)c2)n[nH]1` [Compound A-30], in the assay on Ramos cells, the EC50 was less than 5 µM. Also, the 50% inhibitory concentration (IC50) on F1F0-ATPase was less than 5 µM.
With `Cn1cc(C(=O)/N=C(\NCC(C)(C)C)Nc2cc(-c3cc(F)cc(F)c3)n[nH]2)c(C(F)(F)F)n1` [Compound A-31], the EC50 in the assay on Ramos cells is less than 5 µM. The IC50 at F1F0-ATPase was less than 5 µM.
Turning to `COC[C@H](C)N/C(=N\C(=O)c1cn(C)nc1C(F)(F)F)Nc1cc(-c2cc(F)cc(F)c2)n[nH]1` [Compound A-32], the EC50 in the assay with Ramos cells lay in the range of 5 to 16 µM. In addition, the IC50 on F1F0-ATPase lay in the range of 5 to 16 µM.
Take `CCC(C)N/C(=N\C(=O)c1cn(C)nc1C(F)(F)F)Nc1cc(-c2cc(F)cc(F)c2)n[nH]1` (stereo not shown) [Compound A-33]: in the assay with Ramos cells, the 50% effective concentration (EC50) was less than 5 µM. For the same compound, the IC50 at F1F0-ATPase was less than 5 µM.
In the case of `O=C(N=C(Nc1cc(F)cc(Cl)c1)Nc1cc(C(F)(F)F)n[nH]1)c1nccs1` [Compound A-34], in the assay with Ramos cells (Homo sapiens), the EC50 was less than 5 µM. In addition, at F1F0-ATPase, the IC50 is less than 5 µM.
In the case of `CC(C)(C)N/C(=N/C(=O)c1nccs1)Nc1cc(C(F)(F)F)n[nH]1` [Compound A-35], the EC50 with Ramos cells lay within 5 to 16 µM. Moreover, the IC50 on F1F0-ATPase was less than 5 µM.
For the compound `Cc1cc(C(=O)/N=C(/Nc2cc(F)cc(Cl)c2)Nc2cc(C(F)(F)F)n[nH]2)on1` [Compound A-36], the 50% effective concentration (EC50) with Ramos cells was less than 5 µM. Further, the IC50 at F1F0-ATPase is less than 5 µM.
As for `Cc1oncc1C(=O)/N=C(/NCc1ccc(F)cc1Cl)Nc1cc(-c2ccc(F)cc2)n[nH]1` [Compound A-37], in the assay with Ramos cells, the EC50 was in the range of 5 to 16 µM.
In the case of `CC(C)(C)N/C(=N/C(=O)c1ccno1)Nc1cc(-c2ccc(F)cc2)n[nH]1` [Compound A-38], in the assay with Ramos cells, the EC50 was in the range of 5 to 16 µM. Moreover, the IC50 on F1F0-ATPase was 5 to 16 µM.
On to `Cc1ccccc1CN/C(=N/C(=O)c1ccno1)Nc1cc(-c2ccc(F)cc2)n[nH]1` [Compound A-39], for which the IC50 on F1F0-ATPase was in the range of 5 to 16 µM.
In the case of `Cc1cc(C(=O)/N=C(\Nc2cc(-c3ccc(F)cc3)n[nH]2)NC(C)(C)C)on1` [Compound A-40], the EC50 with Ramos cells is greater than 16 µM. Further, the IC50 at F1F0-ATPase was in the range of 5 to 16 µM.
Regarding `Cc1cc(C(=O)N=C(Nc2cc(-c3ccc(F)cc3)[nH]n2)NC(C)(C)C)no1` [Compound A-41], on F1F0-ATPase, the IC50 lay in the range of 5 to 16 µM.
Turning to `Cc1cc(C(=O)/N=C(/NCc2ccccc2C)Nc2cc(-c3ccc(F)cc3)n[nH]2)no1` [Compound A-42], in the assay with Ramos cells, the EC50 is 5 to 16 µM. On F1F0-ATPase, the 50% inhibitory concentration (IC50) was less than 5 µM.
As for `Cn1nc(C(C)(C)C)cc1C(=O)/N=C(\Nc1cc(-c2ccc(F)cc2)n[nH]1)NC(C)(C)C` [Compound A-43], the IC50 at F1F0-ATPase is less than 5 µM.
Turning to `Cc1ccccc1CN/C(=N/C(=O)c1cc(C(C)(C)C)nn1C)Nc1cc(-c2ccc(F)cc2)n[nH]1` [Compound A-44], in the assay with Ramos cells, the EC50 was less than 5 µM. Further, at F1F0-ATPase, the IC50 is less than 5 µM.
Regarding `COc1cccc(CN/C(=N/C(=O)c2ccn(C)n2)Nc2cc(-c3ccc(F)cc3)n[nH]2)c1` [Compound A-45], in the assay with Ramos cells, the EC50 was 5 to 16 µM. For the same compound, the IC50 at F1F0-ATPase fell in the range of 5 to 16 µM.
